# Reference: ChEMBL document CHEMBL3352132, “Synthesis, screening and docking of small heterocycles as glycogen phosphorylase inhibitors” (Eur J Med Chem, 2014)
# Calls of active or inactive are those of the source. The calls are words filed in the database; no cut-off is given here.
# Target: T1, Glycogen phosphorylase, muscle form (Oryctolagus cuniculus) (UniProt P00489)
# T1 sequence (whole entry): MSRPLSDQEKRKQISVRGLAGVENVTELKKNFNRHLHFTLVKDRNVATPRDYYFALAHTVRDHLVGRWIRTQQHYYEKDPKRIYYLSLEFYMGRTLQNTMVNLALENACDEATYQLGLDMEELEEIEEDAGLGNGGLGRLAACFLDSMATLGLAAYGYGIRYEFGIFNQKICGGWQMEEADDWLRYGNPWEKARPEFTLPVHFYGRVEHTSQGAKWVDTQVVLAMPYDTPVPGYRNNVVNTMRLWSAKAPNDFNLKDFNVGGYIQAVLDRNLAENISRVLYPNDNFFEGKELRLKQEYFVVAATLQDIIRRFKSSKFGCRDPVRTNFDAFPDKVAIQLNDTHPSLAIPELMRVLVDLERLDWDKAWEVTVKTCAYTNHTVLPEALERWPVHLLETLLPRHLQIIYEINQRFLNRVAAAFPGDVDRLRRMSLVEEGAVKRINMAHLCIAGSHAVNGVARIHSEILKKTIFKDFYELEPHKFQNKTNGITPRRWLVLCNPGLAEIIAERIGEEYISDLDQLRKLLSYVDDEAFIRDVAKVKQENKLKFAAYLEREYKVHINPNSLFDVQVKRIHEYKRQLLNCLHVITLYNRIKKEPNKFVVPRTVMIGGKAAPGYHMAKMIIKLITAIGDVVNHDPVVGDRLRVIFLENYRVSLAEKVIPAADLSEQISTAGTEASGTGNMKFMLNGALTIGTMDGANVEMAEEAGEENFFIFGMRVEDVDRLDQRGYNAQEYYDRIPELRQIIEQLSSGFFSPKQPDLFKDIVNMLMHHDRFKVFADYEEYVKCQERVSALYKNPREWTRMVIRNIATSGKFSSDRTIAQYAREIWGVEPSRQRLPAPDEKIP
# Experiment: Inhibition of rabbit muscle glycogen phosphorylase a assessed as inhibition of release of phosphate from glucose-1-phosphate at 56 mM after 30 mins by spectrophotometry
row,inhibition [%],Structure (SMILES)
1,94,O=[N+]([O-])c1ccc(C2=NCCO2)cc1

# Target: T1, Glycogen phosphorylase, muscle form (Oryctolagus cuniculus)
# Experiment: Inhibition of rabbit muscle glycogen phosphorylase a assessed as inhibition of release of phosphate from glucose-1-phosphate at 222 mM after 30 mins by spectrophotometry
row,inhibition [%],Structure (SMILES)
1,5,O=C(NCCCCC(NC(=O)OCc1ccccc1)C(=O)N1CCOCC1)OCc1ccccc1 (stereo unspecified)
2,25,NC(CCC(=O)O)C(=O)N1CCOCC1 (stereo unspecified)
3,99,c1ccc(C2=NCCCN2)cc1
4,20,NC(Cc1ccccc1)C(=O)N1CCOCC1 (stereo unspecified)

# Target: T2, Glycogen phosphorylase, muscle form (Oryctolagus cuniculus, UniProt P00489)
# T2 sequence (P00489 whole entry): T1 sequence (whole entry)
# Experiment: (§1) Inhibition of rabbit muscle glycogen phosphorylase a assessed as inhibition of release of phosphate from glucose-1-phosphate after 30 mins by spectrophotometry
row,IC50 [mM],Structure (SMILES)
1,1.2,CC1(C)CN=C(c2ccccc2)NC1
2,0.025,COC(=O)[C@@H]1CSC(c2ccccc2)=N1
3,1.1,CC(C)(C)OC(=O)N1CCCN=C1c1ccccc1
4,7.2,CC(C)N1CCCN=C1c1ccccc1
5,7.8,c1ccc(C2=NC3CCCCC3N2)cc1 (stereo unspecified)
6,3,c1ccc(C2=NCCCCN2)cc1
7,23.9,c1ccc(C2=NCCO2)cc1
8,6.5,CC(C)CC(N)C(=O)N1CCOCC1 (stereo unspecified)
9,1.4,c1ccc(C2=NCCCCO2)cc1

# Target: T1, Glycogen phosphorylase, muscle form (Oryctolagus cuniculus)
# Experiment: as §1
row,Activity,Structure (SMILES)
1,inactive,NCCCCC(N)C(=O)N1CCOCC1 (stereo unspecified)
2,inactive,O=C(NC(Cc1ccccc1)C(=O)N1CCOCC1)OCc1ccccc1 (stereo unspecified)
3,inactive,CC(C)CC(NC(=O)OCc1ccccc1)C(=O)N1CCOCC1 (stereo unspecified)

# Target: T1, Glycogen phosphorylase, muscle form (Oryctolagus cuniculus)
# Experiment: Inhibition of rabbit muscle glycogen phosphorylase a assessed as inhibition of release of phosphate from glucose-1-phosphate at 111 mM after 30 mins by spectrophotometry
row,inhibition [%],Structure (SMILES)
1,12,CC(C)(C)OC(=O)NC(CCC(=O)O)C(=O)N1CCOCC1 (stereo unspecified)
2,39,c1ccc(C2=NCCCO2)cc1
3,78,CC1CN=C(c2ccccc2)O1 (stereo unspecified)

# Target: T1, Glycogen phosphorylase, muscle form (Oryctolagus cuniculus)
# Experiment: Inhibition of rabbit muscle glycogen phosphorylase a assessed as inhibition of release of phosphate from glucose-1-phosphate at 22 mM after 30 mins by spectrophotometry
row,inhibition [%],Structure (SMILES)
1,39,c1ccc(C2=NCCS2)cc1
